Data set [1] concerns the target human vasopressin V1a receptor subtype (Homo sapiens, UniProt P37288). The data set is described as follows: Vasopressin binding in CHO cell membranes expressing human vasopressin V1a subtype receptors. The following applies: [3H]Manning ligand; for inhibition at 0.1 µM: 100 nM; for IC50: value in parentheses. From the text: Vasopressin Binding in Chinese Hamster Ovary Cell Membranes Expressing Human Vasopressin V1a Subtype Receptors
Chinese hamster ovary cells (CHO cells) stably transfected with the human vasopressin V1a subtype receptors were either obtained from Biosignal Inc., 1744 rue Williams, Montreal, Quebec, Canada or obtained from M. Thibonnier, Case Western Reserve University School of Medicine, Cleveland, Ohio. A. Passaging and Amplification of Cells: CHO cells transfected with the human vasopressin V1a subtype receptors obtained from M. Thibonnier (pZeoSV vector) are allowed to grow to confluency (approx. >90%) in T-150 flasks under sterile conditions, in a cell culture medium of F-12 Nutrient Mixture (HAM) with L-glutamine (Gibco Cat. # 11765-054) containing 15 mM HEPES (Gibco Cat. 15630-080), 1% antibiotic/antimycotic (add 5 mL 100×, Gibco Cat. 15240-062 per 500 mL F-12), 250 μg/mL Zeocin (add 1.25 mL of 100 mg/mL Invitrogen R-250-01 per 500 mL F-12) and 10% Fetal Bovine Serum (Qualified, heat inactivated, Gibco Cat. # 16140-063). The medium is removed by aspiration and the cells are washed with 10 mL of Hank's Balanced Salt solution (Gibco Cat. # 14175-095). The salt solution is removed by aspiration and the cells are trypsinized with 5 mL of trypsin-EDTA (0.05% trypsin, 0.53 mM EDTA-4Na, Gibco Cat. # 25300-070) for 1 min. The trypsin is removed by aspiration and the cells dislodged by tapping. Cell Culture medium (eg, 30 mL for 1:30 split) is immediately added and mixed well to inactivate trypsin. 1 mL of detached cells is added to new culture flasks containing fresh cell culture medium (eg, into 25 mL per T-150 flask), and mixed gently. The cells are incubated at 37° C. in 5% CO2. The medium is changed at 3 to 4 days interval (or as appropriate). The cells grow to confluency (approx. >75%–95%) within 7–8 days. All steps are done under sterile conditions. B. Membrane Preparation: The cells are washed twice gently with Hank's Balanced Salt solution (e.g,. use 10 mL per T-150 flask). The excess is removed and the cells are bathed for 15–30 min. in an enzyme-free Cell Dissociation Buffer (e.g. use 8 mL Hank's Based, Gibco Cat. # 13150-016 per T-150 flask) until the cells are loosened. The contents are transferred to centrifuge tubes (50 mL) kept in an ice bath. All subsequent steps are done at 4° C. The tubes are centrifuged at 300×g for 15 min (1380 rpm on SORVAL, Model RT6000D, using rotor for the 50 mL tubes). The supernatant is discarded and the cells suspended in homogeneizing buffer(10 mM Tris-HCl containing 0.25 M sucrose and 1 mM EDTA, pH 7.4) ensuring that the volume of the buffer is about ten times the volume of the cell pellet. The cells are pooled into a centrifuge tube (50 mL) and homogenized with Polytron at setting 6 for 10 sec. The homogenate is transferred into a Potter-Elvjehm homogenizer and homogenized with 3 strokes. The homogenate is centrifuged at 1500× g for 10 min at 4° C. (3100 rpm using SORVAL, model RT6000D, using the rotor for 50 mL tubes). The pellet is discarded. The supernatant is centrifuged at 100,000×g for 60 min. at 4° C. (Beckman L8-80M ultracentrifuge; spin at 37,500 rpm with rotor type 70 Ti for 50 mL tubes; 38,000 rpm with type 80Ti for 15 mL tubes; or 35,800 rpm with rotor type 45Ti). The supernantant is discarded and the pellet suspended in 3 to 4 mL of Tris buffer (50 mM TRIS-HCl, pH 7.4). The protein content is estimated by the Bradford or Lowry method. The volume of the membrane suspension is adjusted with the membrane buffer (50 mM Tris-HCl containing 0.1% BSA and 0.1 mM PMSF) to give 3.0 mg/mL (or as appropriate) of protein. The membranes are aliquoted and stored at −70° C. C. […]

Experimental findings from patent US7202239B2, “Cyclohexylphenyl carboxamides tocolytic oxytocin receptor antagonists” (Wyeth, priority 2001, dated 2007) are described below.

Molecules are shown by their SMILES.

Sequence of human vasopressin V1a receptor subtype (P37288 whole entry): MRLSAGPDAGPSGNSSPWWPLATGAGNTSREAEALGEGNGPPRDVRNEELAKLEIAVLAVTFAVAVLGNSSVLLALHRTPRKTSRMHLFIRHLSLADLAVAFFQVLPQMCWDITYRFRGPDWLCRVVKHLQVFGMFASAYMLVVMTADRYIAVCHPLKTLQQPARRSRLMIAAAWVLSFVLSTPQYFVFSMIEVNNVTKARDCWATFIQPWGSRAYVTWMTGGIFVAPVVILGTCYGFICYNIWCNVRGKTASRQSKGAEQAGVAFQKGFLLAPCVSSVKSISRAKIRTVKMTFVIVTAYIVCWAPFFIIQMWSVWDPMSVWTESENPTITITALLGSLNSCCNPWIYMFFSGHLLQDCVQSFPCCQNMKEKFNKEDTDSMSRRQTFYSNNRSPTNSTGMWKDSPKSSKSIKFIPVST

`CN1CCN(C(=O)c2ccc3n2Cc2ccc(C(=O)O)cc2N(C(=O)c2ccc(C4CCCCC4)cc2)C3)CC1` [Example 3, 10-(4-Cyclohexyl-benzoyl)-3-[(4-methyl-1-piperazinyl)carbonyl]-10,11-dihydro-5H-pyrrolo[2,1-c][1,4]benzodiazepine-8-carboxylic acid] came in with a melting point of 195 to 210 °C. In addition, the inhibition at 0.1 µM in data set [1] is -19%.
On the same counts, the results for `CC(C)(C)c1ccc(C(=O)c2ccc3n2Cc2ccccc2N(C(=O)c2ccc(C4CCCCC4)cc2)C3)cc1` [Example 5, [4-(tert-Butyl)phenyl][10-(4-cyclohexyl-benzoyl)-10,11-dihydro-5H-pyrrolo[2,1-c][1,4]benzodiazepin-3-yl]methanone] are 143 to 145 °C and 3%.
On the same counts, the results for `O=C(c1ccc(C2CCCCC2)cc1)N1Cc2ccc(C(=O)C(Cl)(Cl)Cl)n2Cc2ccccc21` [Example 7, 2,2,2-Trichloro-1-[10-(4-cyclohexyl-benzoyl)-10,11-dihydro-5H-pyrrolo[2,1-c][1,4]benzodiazepin-3-yl]-1-ethanone] are 172 to 174 °C and 4%.
With `CC(=NNC(=O)c1ccc2n1Cc1ccccc1N(C(=O)c1ccc(C3CCCCC3)cc1)C2)N(C)C` [Example 9, N′-{[10-(4-Cyclohexyl-benzoyl)-10,11-dihydro-5H-pyrrolo[2,1-c][1,4]benzodiazepin-3-yl]carbonyl}-N,N-dimethylethanehydrazonamide], the melting point lay in the range of 164 to 175 °C. The IC50 in data set [1] is 0.146 µM.
Consider `CN(C)C=NNC(=O)c1ccc2n1Cc1ccccc1N(C(=O)c1ccc(C3CCCCC3)cc1)C2` [Example 10, N′-{[10-(4-Cyclohexyl-benzoyl)-10,11-dihydro-5H-pyrrolo[2,1-c][1.4]benzodiazepin-3-yl]carbonyl}-N,N-dimethylhydrazonoformamide], for which the melting point fell in the range of 167 to 190 °C. In data set [1], the concentration for half-maximal inhibition (IC50) was 0.366 µM.
Take `NC(=O)c1ccc2n1Cc1ccccc1N(C(=O)c1ccc(C3CCCCC3)cc1)C2` [Example 16, 10-(4-Cyclohexyl-benzoyl)-10,11-dihydro-5H-pyrrolo[2,1-c][1,4]benzodiazepin-3-carboxamide]: the melting point fell in the range of 122 to 123 °C. In addition, the 50% inhibitory concentration (IC50) in data set [1] was 0.377 µM.
On the same counts, the results for `CN(C)/C=N/C(=O)c1ccc2n1Cc1ccccc1N(C(=O)c1ccc(C3CCCCC3)cc1)C2` [Example 17] are 216 to 218 °C and 0.306 µM.
On the same counts, the results for `C/C(=N\C(=O)c1ccc2n1Cc1ccccc1N(C(=O)c1ccc(C3CCCCC3)cc1)C2)N(C)C` [Example 18] are 128 to 131 °C and 0.0875 µM.
On the same counts, the results for `CN(C)NC(=O)c1ccc2n1Cc1ccccc1N(C(=O)c1ccc(C3CCCCC3)cc1)C2` [Example 19, 10-(4-Cyclohexyl-benzoyl)-N′-N′-dimethyl-10,11-dihydro-5H-pyrrolo[2,1-c][1,4]benzodiazepine-3-carbohydrazide] are 182 to 183 °C and 0.88 µM.
Compound `CN(C)/C=C/C(=O)c1ccc2n1Cc1ccccc1N(C(=O)c1ccc(C3CCCCC3)cc1)C2` [Example 20, (E)-1-[10-(4-Cyclohexyl-benzoyl)-10,11-dihydro-5H-pyrrolo[2,1-c][1,4]benzodiazepin-3-yl]-3-(dimethylamino)-2-propen-1-one] came in with a melting point of 237 to 240 °C. Moreover, the inhibition at 0.1 µM in data set [1] stood at 21%.
Compound `CN1CCN(C(=O)c2ccc3n2Cc2ccccc2N(C(=O)c2ccc(C4CCCCC4)cc2)C3)CC1` [Example 24, [10-(4-Cyclohexyl-benzoyl)-10,11-dihydro-5H-pyrrolo[2,1-c][1,4]benzodiazepin-3-yl](4-methyl-1-piperazinyl)-methanone] registered a melting point of 134 to 136 °C. In addition, the IC50 in data set [1] was determined as 0.203 µM.
With `Cc1ccccc1N1CCN(C(=O)c2ccc3n2Cc2ccccc2N(C(=O)c2ccc(C4CCCCC4)cc2)C3)CC1` [Example 27, [10-(4-Cyclohexyl-benzoyl)-10,11-dihydro-5H-pyrrolo[2,1-c][1,4]benzodiazepin-3-yl][4-(2-methylphenyl)-1-piperazinyl]-methanone], the melting point was in the range of 141 to 143 °C. Moreover, in data set [1], the inhibition at 0.1 µM is 6%.
For `CN1CCCN(C(=O)c2ccc3n2Cc2ccccc2N(C(=O)c2ccc(C4CCCCC4)cc2)C3)CC1` [Example 30, [10-(4-Cyclohexyl-benzoyl)-10,11-dihydro-5H-pyrrolo[2,1-c][1,4]benzodiazepin-3-yl](4-methyl-[1,4]-diazepan-1-yl)-methanone], in that order: 133 to 136 °C and 49%.
